Values belong to the compound of their own block, whether it stands above or below them.
What was measured:
Experiment in all cases: p-nitrophenol release at […] nm, non-linear fit
Format in all cases: biochemical, Thermomicrobium roseum
TrL3 = system: T1, TrL3; settings: 60 °C; Tris-HCl 50 mM pH 8.0; gum arabic and sodium deoxycholate emulsion; read-out: 4-Nitrophenyl benzoate
T1 construct: gene EstE7; N-terminal lid Asp13-Gly57 of 3K6K fused to TrLipE Val54-Ala323; His-tagged, E. coli BL21, 35-37 kDa

TrL17 = system: T2, TrL17; settings: 60 °C; Tris-HCl 50 mM pH 8.0; gum arabic and sodium deoxycholate emulsion; read-out: 4-Nitrophenyl benzoate
T2 construct: gene EstN7; N-terminal lid Lys2-Glu45 of 7B4Q fused to TrLipE Val54-Ala323; His-tagged, E. coli BL21, 35-37 kDa

TrL18 = system: T3, TrL18; settings: 60 °C; Tris-HCl 50 mM pH 8.0; gum arabic and sodium deoxycholate emulsion; read-out: 4-Nitrophenyl benzoate
T3 construct: N-terminal lid Ala2-Glu45 of 7UAY fused to TrLipE Val54-Ala323; His-tagged, E. coli BL21, 35-37 kDa

TrL2 = system: T4, TrL2; settings: 60 °C; Tris-HCl 50 mM pH 8.0; gum arabic and sodium deoxycholate emulsion; read-out: 4-Nitrophenyl benzoate
T4 construct: gene EstE5; N-terminal lid Ala2-Asp42 of 3H18 fused to TrLipE Val54-Ala323; His-tagged, E. coli BL21, 35-37 kDa

TrL16 = system: T5, TrL16; settings: 60 °C; Tris-HCl 50 mM pH 8.0; gum arabic and sodium deoxycholate emulsion; read-out: 4-Nitrophenyl decanoate
T5 construct: gene PMGL3; N-terminal lid Asn2-Cys49 of 7B1X fused to TrLipE Val54-Ala323; His-tagged, E. coli BL21, 35-37 kDa

TrL8 = system: T6, TrL8; settings: 60 °C; Tris-HCl 50 mM pH 8.0; gum arabic and sodium deoxycholate emulsion; read-out: 4-Nitrophenyl decanoate
T6 construct: gene ThaEst2349; N-terminal lid Pro2-Asp49 of 4V2I fused to TrLipE Val54-Ala323; His-tagged, E. coli BL21, 35-37 kDa

TrL7 = system: T7, TrL7; settings: 60 °C; Tris-HCl 50 mM pH 8.0; gum arabic and sodium deoxycholate emulsion; read-out: 4-Nitrophenyl laurate
T7 construct: gene SshEstI; N-terminal lid Pro2-Lys45 of 4P9N fused to TrLipE Val54-Ala323; His-tagged, E. coli BL21, 35-37 kDa

TrL5 = system: T8, TrL5; settings: 60 °C; Tris-HCl 50 mM pH 8.0; gum arabic and sodium deoxycholate emulsion; read-out: 4-Nitrophenyl laurate
T8 construct: N-terminal lid Asn23-Pro66 of 4C89 fused to TrLipE Val54-Ala323; His-tagged, E. coli BL21, 35-37 kDa

TrL9 = system: T9, TrL9; settings: 60 °C; Tris-HCl 50 mM pH 8.0; gum arabic and sodium deoxycholate emulsion; read-out: 4-Nitrophenyl palmitate
T9 construct: gene Est8; N-terminal lid Ala2-Gly49 of 4YPV fused to TrLipE Val54-Ala323; His-tagged, E. coli BL21, 35-37 kDa

TrL12 = system: T10, TrL12; settings: 60 °C; Tris-HCl 50 mM pH 8.0; gum arabic and sodium deoxycholate emulsion; read-out: 4-Nitrophenyl palmitate
T10 construct: gene TmelEST2; N-terminal lid Gln34-Glu74 of 5MIF fused to TrLipE Val54-Ala323; His-tagged, E. coli BL21, 35-37 kDa

TrL4 = system: T11, TrL4; settings: 60 °C; Tris-HCl 50 mM pH 8.0; gum arabic and sodium deoxycholate emulsion; read-out: 4-Nitrophenyl palmitate
T11 construct: gene LipW; N-terminal lid Val2-Gly53 of 3QH4 fused to TrLipE Val54-Ala323; His-tagged, E. coli BL21, 35-37 kDa

TrL11 = system: T12, TrL11; settings: 60 °C; Tris-HCl 50 mM pH 8.0; gum arabic and sodium deoxycholate emulsion; read-out: 4-Nitrophenyl palmitate
T12 construct: gene E53; N-terminal lid Lys4-Gly69 of 5HC0 fused to TrLipE Val54-Ala323; His-tagged, E. coli BL21, 35-37 kDa

TrL1 = system: T13, TrL1; settings: 60 °C; Tris-HCl 50 mM pH 8.0; gum arabic and sodium deoxycholate emulsion; read-out: 4-Nitrophenyl palmitate
T13 construct: gene EST2; N-terminal lid Leu3-Pro44 of 1EVQ fused to TrLipE Val54-Ala323; His-tagged, E. coli BL21, 35-37 kDa

Km (TrL3): 37 µM
Km (TrL17): 60.2 µM
Km (TrL18): 44.9 µM
Km (TrL2): 50 µM
Structure (SMILES): O=C(Oc1ccc([N+](=O)[O-])cc1)c1ccccc1 [4-Nitrophenyl benzoate]

Km (TrL16): 44.7 µM
Km (TrL8): 21.8 µM
Structure (SMILES): CCCCCCCCCC(=O)Oc1ccc([N+](=O)[O-])cc1 [4-Nitrophenyl decanoate]

Km (TrL7): 12.8 µM
Km (TrL5): 21.1 µM
Structure (SMILES): CCCCCCCCCCCC(=O)Oc1ccc([N+](=O)[O-])cc1 [4-Nitrophenyl laurate]

Structure (SMILES): CCCCCCCCCCCCCCCC(=O)Oc1ccc([N+](=O)[O-])cc1 [4-Nitrophenyl palmitate]
Km (TrL9): 23.2 µM
Km (TrL12): 13.7 µM
Km (TrL4): 7.46 µM
Km (TrL11): 77.4 µM
Km (TrL1): 55.3 µM
